From patent US20220240499A1, “COMPOSITION AND METHOD FOR CRYOPRESERVATION OF CELLS” (Regents of the University of Minnesota, priority 2019, published 2022)
Where a SMILES comes first, the peptide text is derived from it. The star is where a group is joined. Cbz = O=C(OCc1ccccc1)*; CH2F = FC*

Key:
[1] = system: iPS cell aggregates; experiment: Cell proliferation of post-thaw culture from 24 to 48 h; type: cell-based, human; conditions: 1: no net change in total live cell count in culture
Experimental: (§1) Different forms of cellular damage were identified. Low-temperature spectroscopy was conducted as described earlier to characterize the formation of intracellular ice at −50° C. Both pre-freeze and post-thaw, cells were stained for ROS and free radicals using H2DCFDA (ROS Detection Assay Kit, BioVision) at 37° C. for 45 min to characterize oxidative stress by immunofluorescence and microplate assay. Thawed cells were also stained for caspase enzyme activity using FAM-FLICA (from ImmunoChemistry Technologies, LLC in Bloomington, Minn.) to detect apoptosis. Size of cell aggregates post-thaw was observed visually. Post-thaw cell recovery, reattachment and proliferation were measured as described earlier. Cells cryopreserved using 10% DMSO in PBS++ was used as a control. Brightfield and fluorescent images were acquired using a Carl Zeiss Axioskop 50 with a 10× air objective (NA 0.30, Plan-Neofluar, Carl Zeiss) or a 20× air objective (NA 0.50, Plan-Neofluar, Carl Zeiss) and a Spot Insight Firewire 2 Camera. Microplate assay was quantified using a Synergy HT microplate reader (BioTek).
Different types of additives were tested. P188 5% w/v was added to both the basal solution and the 2× cryopreservation solution to stabilize cell membrane. 2× NEAA was added pre-freeze to the 2× cryopreservation solution to conserve cellular energy. The following molecules were used to target general or specific apoptosis pathways and added at the given working concentration either pre-freeze or post-thaw: 10 μM rho kinase inhibitor (or ROCK inhibitor, Y-27632, […] Technologies), 20 μM pan caspase inhibitor (Z-VAD-FMK, from ApexBio Technology LLC in Houston, Tex.), 1 μg/ml Fas ligand inhibitor (Recombinant Human Fas/TNFRSF6-Fc Chimera from BioLegend in San Diego, Calif.), 100 ng/ml each of TNF-related apoptosis-inducing ligand (TRAIL) inhibitors targeting TRAIL receptor 1 (Recombinant Human TNFRSF10A-Fc Chimera, BioLegend), TRAIL receptor 2 (Recombinant Human TNFRSF10B-Fc Chimera, BioLegend), and TRAIL receptor 4 (Recombinant Human TNFRSF10D-Fc Chimera, BioLegend) respectively.

[2] = system: iPS cell aggregates; experiment: Post-thaw cell reattachment (calcein AM, 24 h post-thaw) after controlled-rate freezing, development of buffer and additives; type: cell-based, human; conditions: 100%: same as DMSO control; for Post-thaw reattachment rate of cell aggregates buffered in HBSS: HBSS buffer; for Post-thaw reattachment rate of cell aggregates buffered in PBS++: PBS++ buffer
Experimental: Cells were dissociated using ReLeSR™ and harvested as aggregates without centrifugation in the basal solution at cell concentration of ˜ 3×10^6/ml. Suspension of cell aggregates was loaded into cryovials (Nunc CryoTube, ThermoFisher Scientific) for 0.5 ml/vial. 2× cryopreservation solution was introduced to the cells dropwise for 0.5 ml/vial. Cells were then incubated at room temperature for exactly 30 min before freezing.
Cryovials of cells were frozen using a controlled-rate freezer (Kryo 10 Series III from Planer PLC in Middlesex, UK) following the steps listed below using a cooling rate, B, of 1° C./min and a seeding (or ice nucleation) temperature, TNUC, of −4° C.: • 1. Starting temperature 20° C. • 2. −10° C./min to 0° C. • 3. Hold at 0° C. for 10 min to equilibrate temperature inside and outside cryovials • 4. −1° C./min to −4° C. • 5. Hold at −4° C. for 15 min • 6. Induce ice nucleation when cryovial internal temperature reaches −4° C. towards the end of step 5 • 7. −1° C./min to −60° C. • 8. −10° C./min to −100° C.
Frozen cryovials were thawed in a 37° C. water bath. The cryovial was submerged below the lid and agitated for 2.5 min.
E8 media, either with or without apoptosis inhibitors, was added to the thawed suspension of cell aggregates using a flow rate of ˜ 1 ml/min. Dilution factor of 2 was used, meaning each cryovial of cells was used to produce 1 well of a 6-well plate of post-thaw cell culture. Diluted cells were seeded onto a freshly coated culture vessel and placed in 5% CO2 at 37° C. incubator undisturbed for 24 h.
Ability of cryopreserved cells to re-establish culture after thawing was assessed based on a metric of post-thaw cell reattachment. Thawed cells were plated at a specified split ratio. After 24 h, post-thaw culture was washed and stained for live cells with esterase activity using cell permeant dye calcein AM (ThermoFisher Scientific). Live cells in each sample were quantified using a Synergy HT microplate reader (BioTek) in scan mode based on mean fluorescence intensity. Fluorescence measurement was normalized to controls, which were either fresh cells passaged with the same cell density or cells cryopreserved with the same pre-freeze cell concentration using a DMSO-based control formulation, to determine the value of post-thaw cell reattachment for each sample in arbitrary unit.
Controlled-rate freezing protocol remained constant with a cooling rate of 1° C./min and an ice nucleation temperature of −4° C.
as §1
Different types of additives were tested. P188 5% w/v was added to both the basal solution and the 2× cryopreservation solution to stabilize cell membrane. 2× NEAA was added pre-freeze to the 2× cryopreservation solution to conserve cellular energy. […]

[3] = system: iPS cell aggregates; experiment: Screening of osmolytes for wash-free cryopreservation (cytotoxicity limits by cell reattachment); conditions: 300 mM, 30 min, in HBSS at room temperature; observed 24 hours later
Experimental: Different types of sugars (disaccharides) and sugar alcohols (all BioUltra or PharmaGrade, Sigma-Aldrich) were individually tested for cytotoxicity limits based on its effect on cell reattachment. In consideration for pre-freeze cell processing, each molecule of a given concentration among 300 mM, 150 mM, and 75 mM was used to incubate cell aggregates suspended in HBSS at room temperature for 30 minutes or 1 hour. Then, in consideration of wash-free thawing at minimum dilution ratio of 2, each sample of cell aggregates were mixed at 1:1 volume ratio with E8 media and plated on vitronectin-coated culture vessel. 24 hours later, cell reattachment was observed qualitatively under a Nikon TMS inverted phase contrast microscope. Disaccharides included sucrose, trehalose, maltose, and lactose.

Compound | Cell proliferation of culture cryopreserved in HBSS from 24 to 48 h post-thaw ([1]; inhibitors added post-thaw) | Post-thaw reattachment rate of cell aggregates buffered in HBSS ([2]; inhibitor added post-thaw) [%] | Post-thaw reattachment rate of cell aggregates buffered in PBS++ ([2]; inhibitor added post-thaw) [%] | Post-thaw reattachment rate of cell aggregates buffered in PBS++ ([2]; inhibitor added pre-freeze) [%] | Conditions and observation: cell reattachment after incubation [3] | Cell proliferation of culture cryopreserved in HBSS from 24 to 48 h post-thaw ([1]; inhibitors added pre-freeze) | Post-thaw reattachment rate of cell aggregates buffered in HBSS ([2]; inhibitor added pre-freeze) [%]
COC(=O)C[C@H](NC(=O)[C@H](C)NC(=O)[C@@H](NC(=O)OCc1ccccc1)C(C)C)C(=O)CF [Pan caspase, Z-VAD-FMK] (Cbz-Val-Ala-Asp(OMe)-CH2F) | 3.312 | 100 | 30 | 15 | – | – | –
ethylene glycol | – | – | – | – | many colonies, normal morphology | – | –
C[C@@H](N)[C@H]1CC[C@H](C(=O)Nc2ccncc2)CC1 [Rho kinase, Y-27632] | – | – | 11 | 109 | – | 0.967 | 104
Fas ligand | 1.749 | 106 | 62 | 45 | – | 1.713 | 76
